# Reference: PMC8187479, “Sugar phosphate activation of the stress sensor eIF2B” (Nature Communications, 2021)
# Substitutions are numbered along the chain they refer to. Values joined by “and” are separate entries in the source; they are usually repeats but may differ in a detail not shown here. Identical values can stand only once.
# Columns and labels:
# [1] = target: T1, eIF2B in eIF2Bα^E198K HEK293T lysate (Homo sapiens, UniProt P49770+Q14232+Q9UI10, E198K); assay: GEF activity assay with eIF2Bα E198K HEK293T lysate; format: biochemical
# T1 construct: endogenous in cells; host or cells: HEK293T, CRISPR knock-in eIF2Bα E198K (homozygous), lysate
# Description: (§1) Bodipy-FL-GDP-loaded eIF2 was used as a substrate for recombinant eIF2B. The assay was performed in 384-well plates. Reactions were read on a SpectraMax i3x plate reader (Molecular Devices) using the instrument’s Softmax Pro software with the following parameters: plate temperature = 25 °C; excitation wavelength = 485 nm (15 nm width); emission wavelength = 535 nm (25 nm width); read duration = 30 min at 45 s intervals. Data were analyzed in Prism. GDP release half-lives were calculated by fitting single-exponential decay curves.
# (§2) For unbiased screening, MIDAS metabolite libraries at 10 mM stock concentration were dispensed into wells of the assay plate using an Echo Acoustic Liquid Handler (Labcyte). In a final assay volume of 10 μL/well, the following conditions were kept constant: 25 nM Bodipy-FL-GDP-loaded eIF2, 4 nM phospho-eIF2, 0.1 mM GDP, 1 mg/mL BSA, 1 nM eIF2B, 10 μM metabolite. A single well was run for each metabolite. For targeted experiments with recombinant wild-type and mutant eIF2Bα, the following conditions were used: 50 nM Bodipy-FL-GDP-loaded eIF2, 0.1 mM GDP, 1 mg/ml BSA, 20 nM eIF2B. For targeted experiments with HEK293T lysates, the following conditions were used: 50 nM Bodipy-FL-GDP-loaded eIF2, 0.1 mM GDP, 1 mg/ml BSA, 0.1 or 0.3 mg/ml lysates.
# [2] = target: T2, eIF2Bα^V183F (Homo sapiens, UniProt Q14232, V183F); assay: Size-exclusion chromatography of recombinant eIF2Bα V183F, alone or with eIF2B(βδγε); format: biochemical; settings: SEC, eIF2Bα V183F alone
# T2 construct: made in house; host or cells: E. coli BL21(DE3)
# T2 sequence (Q14232 1-305 V183F): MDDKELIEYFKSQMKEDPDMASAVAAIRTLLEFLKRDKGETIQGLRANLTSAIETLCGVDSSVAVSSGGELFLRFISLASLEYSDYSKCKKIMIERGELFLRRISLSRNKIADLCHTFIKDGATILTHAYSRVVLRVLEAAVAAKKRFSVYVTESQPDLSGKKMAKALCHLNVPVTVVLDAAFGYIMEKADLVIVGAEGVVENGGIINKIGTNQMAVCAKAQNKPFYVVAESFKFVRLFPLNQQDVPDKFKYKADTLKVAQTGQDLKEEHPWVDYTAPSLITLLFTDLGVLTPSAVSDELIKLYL
# Description: (§3) Purified proteins were thawed and centrifuged at 20,000 × g, 10 min, 4 °C to remove any potential precipitate. Concentrations of eIF2B(βδγε) and eIF2Bα were normalized to 2 μM and 2.4 μM, respectively. 0.2 mL of each mixture was injected onto a Superose 6 Increase 10/300 column connected to an AKTA Pure 25 FPLC system (GE Healthcare). The system was run at 0.5 mL/min for 1 h using 25 mM HEPES, 200 mM KCl, 2 mM MgCl2, 1 mM DTT, pH 7.5 as the mobile phase. For conditions with ISRIB, the protein samples and mobile phase were supplemented with 500 nM ISRIB. For conditions with F6P, the protein samples and mobile phase were supplemented with 200 μM F6P. UV280 measurements were obtained directly by the instrument.
# [3] = target: T3, eIF2B (Homo sapiens, UniProt P49770+Q14232+Q9UI10); assay: eIF2B GEF activity assay, targeted, recombinant wild-type eIF2B; format: biochemical; settings: dose-response with eIF2B; 95% CI 2.2-5.3 μM; read-out: EC50 of GEF activation (GDP release t1/2)
# T3 construct: made in house; host or cells: eIF2Bα: E. coli BL21(DE3)
# Description: as §1, §2
# [4] = target: T4, eIF2Bα (Homo sapiens, UniProt Q14232); assay: Differential scanning fluorimetry (Protein Thermal Shift), eIF2Bα Tm; format: binding; settings: for Tm of eIF2Bα: individual replicates Rep 1-4, control without metabolite about 64.1
# T4 construct: made in house; host or cells: E. coli BL21(DE3)
# T4 sequence (Q14232 1-305): T2 sequence (Q14232 1-305 V183F) with F183V
# In short: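 Human eIF2Bα at 1.5 μM was heated with Thermal Shift dye and metabolites in dose response. Tm for each condition came from Boltzmann fits of the melt curves.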
# [5] = target: T5, eIF2Bα^E198K (Homo sapiens, UniProt Q14232, E198K); assay: Isothermal titration calorimetry, eIF2Bα E198K; format: binding; settings: ITC
# T5 sequence (Q14232 1-305 E198K): T2 sequence (Q14232 1-305 V183F) with F183V, E198K
# Description: Interactions between recombinant protein and sugar phosphates were conducted with a MicroCal PEAQ-ITC (Malvern Panalytical Inc.). Experiments were performed in 25 mM HEPES, 150 mM NaCl, pH 7.5 at 20 °C. […] The final titration curves were fitted using MicroCal ITC data analysis software, assuming a single binding site per monomer.
# [6] = target: eIF2Bα^V183F (Homo sapiens, UniProt Q14232, V183F); assay: Size-exclusion chromatography of recombinant eIF2Bα V183F, alone or with eIF2B(βδγε); format: biochemical; set-up: made in house; host or cells: E. coli BL21(DE3); settings: SEC, recombinant eIF2B(βδγε) + eIF2Bα V183F; 200 μM F6P
# Description: as §3
# Target sequence in this assay (P49770 whole entry partner, one chain of several): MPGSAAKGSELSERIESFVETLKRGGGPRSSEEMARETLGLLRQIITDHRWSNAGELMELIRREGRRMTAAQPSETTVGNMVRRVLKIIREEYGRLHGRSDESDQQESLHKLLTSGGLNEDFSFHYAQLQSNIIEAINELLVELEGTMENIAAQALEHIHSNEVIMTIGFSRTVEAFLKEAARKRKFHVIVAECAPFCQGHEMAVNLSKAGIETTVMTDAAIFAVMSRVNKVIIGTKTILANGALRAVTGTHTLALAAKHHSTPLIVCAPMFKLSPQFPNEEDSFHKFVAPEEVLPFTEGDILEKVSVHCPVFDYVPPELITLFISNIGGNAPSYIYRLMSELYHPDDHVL
# Target sequence in this assay (Q9UI10 whole entry partner, one chain of several): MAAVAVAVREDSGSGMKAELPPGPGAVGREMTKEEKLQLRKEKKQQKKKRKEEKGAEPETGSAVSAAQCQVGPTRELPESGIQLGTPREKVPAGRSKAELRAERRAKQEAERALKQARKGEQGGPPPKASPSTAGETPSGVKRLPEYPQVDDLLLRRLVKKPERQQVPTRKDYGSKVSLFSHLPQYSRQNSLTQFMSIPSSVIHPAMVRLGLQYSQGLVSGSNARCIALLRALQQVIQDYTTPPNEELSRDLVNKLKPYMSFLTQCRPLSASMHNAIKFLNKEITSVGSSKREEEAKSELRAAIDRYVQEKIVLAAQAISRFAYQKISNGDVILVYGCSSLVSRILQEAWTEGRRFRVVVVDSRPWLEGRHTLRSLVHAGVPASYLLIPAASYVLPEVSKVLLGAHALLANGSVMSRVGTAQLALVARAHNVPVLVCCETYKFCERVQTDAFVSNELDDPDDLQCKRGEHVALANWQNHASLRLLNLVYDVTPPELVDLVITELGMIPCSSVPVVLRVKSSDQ
# Target sequence in this assay (Q9NR50 whole entry partner, one chain of several): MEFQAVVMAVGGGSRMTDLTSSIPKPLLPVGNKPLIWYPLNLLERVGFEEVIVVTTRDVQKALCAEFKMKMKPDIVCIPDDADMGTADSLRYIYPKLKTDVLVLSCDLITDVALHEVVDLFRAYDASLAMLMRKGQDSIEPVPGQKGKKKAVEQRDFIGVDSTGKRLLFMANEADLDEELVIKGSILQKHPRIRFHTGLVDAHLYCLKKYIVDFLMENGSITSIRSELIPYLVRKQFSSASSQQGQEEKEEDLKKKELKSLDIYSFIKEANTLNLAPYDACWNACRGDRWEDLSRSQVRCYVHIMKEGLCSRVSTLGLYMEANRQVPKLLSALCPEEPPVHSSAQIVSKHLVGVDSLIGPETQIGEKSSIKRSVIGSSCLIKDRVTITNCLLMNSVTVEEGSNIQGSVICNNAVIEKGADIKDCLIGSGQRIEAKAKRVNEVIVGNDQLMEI
# Target sequence in this assay (Q13144 whole entry partner, one chain of several): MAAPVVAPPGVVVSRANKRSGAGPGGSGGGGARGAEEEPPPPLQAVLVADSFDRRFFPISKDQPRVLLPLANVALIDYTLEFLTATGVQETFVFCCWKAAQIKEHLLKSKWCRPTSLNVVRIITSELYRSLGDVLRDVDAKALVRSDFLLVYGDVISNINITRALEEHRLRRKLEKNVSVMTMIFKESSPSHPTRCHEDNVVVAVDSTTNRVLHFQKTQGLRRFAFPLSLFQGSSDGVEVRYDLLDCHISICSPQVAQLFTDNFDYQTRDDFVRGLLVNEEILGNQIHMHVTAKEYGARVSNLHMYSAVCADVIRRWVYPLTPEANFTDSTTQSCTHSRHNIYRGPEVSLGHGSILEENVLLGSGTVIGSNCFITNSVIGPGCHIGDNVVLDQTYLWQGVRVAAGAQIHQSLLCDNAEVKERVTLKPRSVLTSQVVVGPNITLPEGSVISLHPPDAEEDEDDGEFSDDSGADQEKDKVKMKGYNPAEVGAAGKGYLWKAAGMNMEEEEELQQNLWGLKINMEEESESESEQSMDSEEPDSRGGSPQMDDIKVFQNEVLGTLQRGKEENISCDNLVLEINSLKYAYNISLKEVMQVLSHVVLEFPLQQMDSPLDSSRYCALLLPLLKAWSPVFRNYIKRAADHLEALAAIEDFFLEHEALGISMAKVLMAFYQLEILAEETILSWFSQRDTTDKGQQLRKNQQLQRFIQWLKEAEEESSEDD
# T1 sequence (Q14232 whole entry E198K): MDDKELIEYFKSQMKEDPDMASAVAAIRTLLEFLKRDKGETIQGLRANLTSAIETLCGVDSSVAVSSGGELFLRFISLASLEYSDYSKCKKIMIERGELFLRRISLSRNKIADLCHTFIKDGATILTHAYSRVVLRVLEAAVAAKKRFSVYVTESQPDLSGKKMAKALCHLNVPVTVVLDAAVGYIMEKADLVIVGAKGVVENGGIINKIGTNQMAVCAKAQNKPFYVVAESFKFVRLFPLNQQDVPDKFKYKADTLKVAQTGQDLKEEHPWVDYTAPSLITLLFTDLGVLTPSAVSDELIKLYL
# T1 sequence (P49770 whole entry): as the sequence (P49770 whole entry partner, one chain of several) above
# T1 sequence (Q9UI10 whole entry): as the sequence (Q9UI10 whole entry partner, one chain of several) above
# T1 sequence (Q9NR50 whole entry partner): as the sequence (Q9NR50 whole entry partner, one chain of several) above
# T1 sequence (Q13144 whole entry partner): as the sequence (Q13144 whole entry partner, one chain of several) above
# T3 sequence (Q14232 whole entry): as the sequence (Q14232 whole entry E198K) above, with K198E counted along it
# T3 sequence (P49770 whole entry): as the sequence (P49770 whole entry partner, one chain of several) above
# T3 sequence (Q9UI10 whole entry): as the sequence (Q9UI10 whole entry partner, one chain of several) above
# T3 sequence (Q9NR50 whole entry partner): as the sequence (Q9NR50 whole entry partner, one chain of several) above
# T3 sequence (Q13144 whole entry partner): as the sequence (Q13144 whole entry partner, one chain of several) above
compound,measurement,setting,value
"O=C(CO)[C@@H](O)[C@H](O)[C@H](O)COP(=O)(O)O [F6P, fructose-6-phosphate]",effect on GEF activity of eIF2Bα E198K lysate,[1],does not respond
same,monomer-to-dimer shift of eIF2Bα V183F,[2],induced a partial shift from the monomer to the dimer peak
same,EC50,[3],3.4 µM
same,Tm of eIF2Bα,[4]; 0.33 mM metabolite,64.8334 °C and 64.3598 °C and 65.3978 °C and 64.9639 °C
same,Tm of eIF2Bα,[4]; 1 mM metabolite,66.8037 °C and 65.9412 °C and 67.2839 °C and 67.2375 °C
same,Tm of eIF2Bα,[4]; 3.3 mM metabolite,67.7489 °C and 67.4475 °C and 67.8791 °C and 67.7249 °C
same,Tm of eIF2Bα,[4]; 10 mM metabolite,69.8589 °C and 69.0448 °C and 70.0639 °C and 69.9908 °C
same,Tm shift of eIF2Bα2,[4]; largest shift seen in dose-response,6 °C
same,Kd,[5]; eIF2Bα E198K,99 ± 12 µM
same,reduction of affinity of eIF2Bα E198K,[5]; compared with wild-type eIF2Bα,11 fold
same,eIF2Bα V183F monomer peak,[6],significant reduction of the eIF2Bα^V183F monomer peak
